From ChEMBL document CHEMBL1137630, “Development of resistance in wild-type and hypermutable Pseudomonas aeruginosa strains exposed to clinical pharmacokinetic profiles of meropenem and ceftazidime simulated in vitro” (Antimicrob Agents Chemother, 2007)
≈ marks a conversion by molar mass, not a printed value. Calls of active or inactive are those of the source. The rule behind the calls is not given here.

Columns and labels:
Pseudomonas aeruginosa [1] = experiment: Antibacterial activity against Pseudomonas aeruginosa PAO1 by CLSI broth microdilution method; format: functional
Pseudomonas aeruginosa [2] = experiment: Antibacterial activity against Pseudomonas aeruginosa PAO1/MEM mutant by CLSI broth microdilution method; format: functional
Pseudomonas aeruginosa [3] = experiment: Antibacterial activity against hypermutable Pseudomonas aeruginosa 12-09-15/MEM mutant by broth microdilution method
Pseudomonas aeruginosa [4] = experiment: microbe, parasite or virus in culture; settings: isolate 12-09-15
Description: Antibacterial activity against hypermutable Pseudomonas aeruginosa isolate 12-09-15 by CLSI broth microdilution method

Pseudomonas aeruginosa [5] = experiment: Antibacterial activity against Pseudomonas aeruginosa PAO1/CAZ mutant by CLSI broth microdilution method; format: functional
Pseudomonas aeruginosa [6] = experiment: Antibacterial activity against Pseudomonas aeruginosa PAO1 in in vitro PK/PD model assessed as AAC (0 to 8 hrs) at 1 g infused thrice daily at 8 hrs interval measured after first dose; format: functional
[7] = %T>MIC against Pseudomonas aeruginosa PAO1 in in vitro PK/PD model at 1 g infused thrice daily at 8 hrs interval; format: functional
[8] = %T>MIC against hypermutable Pseudomonas aeruginosa isolate 12-09-15 in in vitro PK/PD model at 1 g infused thrice daily at 8 hrs interval; format: functional
[9] = Cmax in PK/PD in vitro model infused with 1g at 8hr intervals; format: ADME; design: dose 1 g; settings: iv
[10] = Half life in in vitro PK/PD model at 1 g infused thrice daily at 8 hrs interval; format: ADME; settings: iv
Pseudomonas aeruginosa [11] = experiment: Antibacterial activity against Pseudomonas aeruginosa PAO1 assessed as maximum bactericidal effect in in vitro PK/PD model by measuring change in bacterial count at 1 g infused every 8 hrs interval measured 1 hr after first dose relative to initial inoculum; format: functional
Pseudomonas aeruginosa [12] = experiment: Antibacterial activity against hypermutable Pseudomonas aeruginosa isolate 12-09-15 assessed as maximum bactericidal effect in in vitro PK/PD model by measuring change in bacterial count at 1 g infused every 8 hrs interval measured 3 hrs after first dose relative to initial inoculum; format: functional
Pseudomonas aeruginosa [13] = experiment: Antibacterial activity against Pseudomonas aeruginosa PAO1 assessed as reduction of bacterial count in in vitro PK/PD model at 1 g infused every 8 hrs interval measured after second dose relative to initial inoculum; format: functional
Pseudomonas aeruginosa [14] = experiment: Antibacterial activity against Pseudomonas aeruginosa PAO1 assessed as change in bacterial count in in vitro PK/PD model at 1 g infused every 8 hrs interval measured after 8 hrs relative to initial inoculum; format: functional, organism-based
Pseudomonas aeruginosa [15] = experiment: Antibacterial activity against hypermutable Pseudomonas aeruginosa isolate 12-09-15 assessed as change in bacterial count in in vitro PK/PD model at 1 g infused every 8 hrs interval measured after 8 hrs relative to initial inoculum; format: functional, organism-based
Pseudomonas aeruginosa [16] = experiment: Antibacterial activity against Pseudomonas aeruginosa PAO1 assessed as bacterial count in in vitro PK/PD model at 1 g infused every 8 hrs interval measured 40 hrs after first dose relative to initial inoculum; format: functional, organism-based
Pseudomonas aeruginosa [17] = experiment: Antibacterial activity against hypermutable Pseudomonas aeruginosa isolate 12-09-15 assessed as bacterial count in in vitro PK/PD model at 1 g infused every 8 hrs interval measured 40 hrs after first dose relative to initial inoculum; format: functional, organism-based
Pseudomonas aeruginosa [18] = experiment: Antibacterial activity against Pseudomonas aeruginosa PAO1 in in vitro PK/PD model assessed as AAC (0 to 24 hrs) at 1 g infused thrice daily at 8 hrs interval; format: functional
Pseudomonas aeruginosa [19] = experiment: Antibacterial activity against hypermutable Pseudomonas aeruginosa isolate 12-09-15 in in vitro PK/PD model assessed as AAC (0 to 24 hrs) at 1 g infused thrice daily at 8 hrs interval; format: functional
[20] = Ratio of Cmax in in vitro PK/PD model at 1 g infused at every 8 hrs intervals to MIC for Pseudomonas aeruginosa PAO1; format: functional
[21] = Ratio of Cmax in in vitro PK/PD model at 1 g infused at every 8 hrs intervals to MIC for hypermutable Pseudomonas aeruginosa isolate 12-09-15; format: functional
Pseudomonas aeruginosa [22] = experiment: Antibacterial activity against Pseudomonas aeruginosa PAO1 at 30 ug/disk in presence of cephalosporinase inhibitor cloxacillin by disk diffusion test; format: functional; settings: read-out: DIZ
Pseudomonas aeruginosa [23] = experiment: Antibacterial activity against Pseudomonas aeruginosa PAO1 at 30 ug/disk in absence of cephalosporinase inhibitor cloxacillin by disk diffusion test; format: functional; settings: read-out: DIZ
Pseudomonas aeruginosa [24] = experiment: Antibacterial activity against Pseudomonas aeruginosa PAO1/CAZ mutant at 30 ug/disk in presence of cephalosporinase inhibitor cloxacillin by disk diffusion test; format: functional; settings: read-out: DIZ
Pseudomonas aeruginosa [25] = experiment: Antibacterial activity against Pseudomonas aeruginosa PAO1 in in vitro PK/PD model assessed as AAC (0 to 8 hrs) at 2 g infused thrice daily at 8 hrs interval measured after first dose; format: functional
[26] = %T>MIC against Pseudomonas aeruginosa PAO1 in in vitro PK/PD model at 2 g infused thrice daily at 8 hrs interval; format: functional
[27] = %T>MIC against hypermutable Pseudomonas aeruginosa 12-09-15 isolate in in vitro PK/PD model at 2 g infused thrice daily at 8 hrs interval; format: functional
Pseudomonas aeruginosa [28] = experiment: Antibacterial activity against Pseudomonas aeruginosa PAO1/CAZ mutant at 30 ug/disk in absence of cephalosporinase inhibitor cloxacillin by disk diffusion test; format: functional; settings: read-out: DIZ
Pseudomonas aeruginosa [29] = experiment: Antibacterial activity against Pseudomonas aeruginosa PAO1 assessed as reduction of bacterial count in in vitro PK/PD model at 2 g infused every 8 hrs interval measured after first dose relative to initial inoculum; format: functional, organism-based
[30] = Cmax in PK/PD in vitro model infused with 2g at 8hr intervals; format: ADME; design: dose 2 g; settings: iv
[31] = Half life in in vitro PK/PD model at 2 g infused thrice daily at 8 hrs interval; format: ADME; settings: iv
Pseudomonas aeruginosa [32] = experiment: Antibacterial activity against Pseudomonas aeruginosa PAO1 assessed as reduction of bacterial count in in vitro PK/PD model at 2 g infused every 8 hrs interval measured after second dose relative to initial inoculum; format: functional
Pseudomonas aeruginosa [33] = experiment: Antibacterial activity against Pseudomonas aeruginosa PAO1 assessed as bacterial count in in vitro PK/PD model at 2 g infused every 8 hrs interval measured 40 hrs after first dose relative to initial inoculum; format: functional, organism-based
Pseudomonas aeruginosa [34] = experiment: Antibacterial activity against Pseudomonas aeruginosa PAO1 in in vitro PK/PD model assessed as AAC (0 to 24 hrs) at 2 g infused thrice daily at 8 hrs interval; format: functional
Pseudomonas aeruginosa [35] = experiment: Antibacterial activity against Pseudomonas aeruginosa PAO1 assessed as maximum bactericidal effect in in vitro PK/PD model by measuring change in bacterial count at 2 g infused every 8 hrs interval measured 17.5 hrs after initial dose relative to initial inoculum

## C[C@@H](O)[C@H]1C(=O)N2C(C(=O)O)=C(SCCNC=N)C[C@H]12 [IMIPENEM ANHYDROUS]
Pseudomonas aeruginosa [1]
  MIC: 2 µg/mL (≈ 6.68 µM)
Pseudomonas aeruginosa [2]
  MIC: 16 µg/mL (≈ 53.4 µM)
Pseudomonas aeruginosa [3]
  MIC: 16 µg/mL (≈ 53.4 µM)
Pseudomonas aeruginosa [4]
  MIC: 4 µg/mL (≈ 13.4 µM)

## C[C@H]1COc2c(N3CCN(C)CC3)c(F)cc3c(=O)c(C(=O)O)cn1c23.C[C@H]1COc2c(N3CCN(C)CC3)c(F)cc3c(=O)c(C(=O)O)cn1c23.O [LEVOFLOXACIN]
Pseudomonas aeruginosa [1]
  MIC: 0.5 µg/mL
Pseudomonas aeruginosa [2]
  MIC: 0.5 µg/mL
Pseudomonas aeruginosa [5]
  MIC: 0.5 µg/mL

## CCN1CCN(C(=O)N[C@@H](C(=O)N[C@@H]2C(=O)N3[C@@H]2SC(C)(C)[C@@H]3C(=O)O)c2ccccc2)C(=O)C1=O [PIPERACILLIN]
Pseudomonas aeruginosa [1]
  MIC: 4 µg/mL (≈ 7.73 µM)
Pseudomonas aeruginosa [5]
  MIC: 64 µg/mL (≈ 124 µM)

## C[C@@H](O)[C@H]1C(=O)N2C(C(=O)O)=C(S[C@@H]3CN[C@H](C(=O)N(C)C)C3)[C@H](C)[C@H]12 [MEROPENEM]
Pseudomonas aeruginosa [6]
  AAC: 5.3 deltalog10CFU/ml.hr
[7]
  T>MIC: 66.7%
[8]
  T>MIC: 41.7%
Pseudomonas aeruginosa [1]
  MIC: 0.5 µg/mL (≈ 1.3 µM)
[9]
  Cmax: 56.1 µg/mL
[10]
  half-life: 0.45 h
Pseudomonas aeruginosa [11]
  deltalog10CFU: -1.09 /ml
Pseudomonas aeruginosa [12]
  deltalog10CFU: -1.23 /ml
Pseudomonas aeruginosa [13]
  deltalog10CFU: -0.83 /ml
Pseudomonas aeruginosa [14]
  Activity: inactive
Pseudomonas aeruginosa [15]
  Activity: inactive
Pseudomonas aeruginosa [16]
  Activity: inactive
Pseudomonas aeruginosa [17]
  Activity: inactive
Pseudomonas aeruginosa [18]
  AAC: -22.46 deltalog10CFU/ml.hr
Pseudomonas aeruginosa [19]
  AAC: -19.58 deltalog10CFU/ml.hr
[20]
  Ratio: 112
[21]
  Ratio: 28.1
Pseudomonas aeruginosa [2]
  MIC: 4 µg/mL (≈ 10.4 µM)
Pseudomonas aeruginosa [3]
  MIC: 16 µg/mL (≈ 41.7 µM)
Pseudomonas aeruginosa [4]
  MIC: 2 µg/mL (≈ 5.22 µM)

## CC(C)(O/N=C(\C(=O)N[C@@H]1C(=O)N2C(C(=O)[O-])=C(C[n+]3ccccc3)CS[C@H]12)c1csc(N)n1)C(=O)O [CEFTAZIDIME]
Pseudomonas aeruginosa [22]
  zone of inhibition at 30 µg/disc: 27 mm
Pseudomonas aeruginosa [23]
  zone of inhibition at 30 µg/disc: 27 mm
Pseudomonas aeruginosa [24]
  zone of inhibition at 30 µg/disc: 27 mm
Pseudomonas aeruginosa [25]
  AAC: -0.19 deltalog10CFU/ml.hr
[26]
  T>MIC: 100%
[27]
  T>MIC: 45.8%
Pseudomonas aeruginosa [28]
  zone of inhibition at 30 µg/disc: 17 mm
Pseudomonas aeruginosa [29]
  Activity: inactive
Pseudomonas aeruginosa [1]
  MIC: 2 µg/mL (≈ 3.66 µM)
[30]
  Cmax: 174 µg/mL
[31]
  half-life: 1.96 h
Pseudomonas aeruginosa [32]
  fold change (FC): 1
Pseudomonas aeruginosa [33]
  Activity: inactive
Pseudomonas aeruginosa [34]
  AAC: 9.29 deltalog10CFU/ml.hr
Pseudomonas aeruginosa [5]
  MIC: 32 µg/mL (≈ 58.5 µM)
Pseudomonas aeruginosa [4]
  MIC: 16 µg/mL (≈ 29.3 µM)
Pseudomonas aeruginosa [35]
  deltalog10CFU: -1.28 /ml
